We go through 7 molecules from US4708956A, “3-position halogenated cephalosporin analogs and pharmaceutical compositions” (Kyowa Hakko Kogyo Co., Ltd., priority 1986, dated 1987).

Values after ≈ are worked out from the molar mass of the structure shown. Like-named read-outs stand apart in the source and are kept apart here.

In experiment [1] the test system is Klebsiella pneumoniae 8045. The experiment can be described thus: Heart Infusion Agar Dilution Method, minimum inhibitory concentration. The class given is cell-based. The following applies: pH 7.2. The method, then: (§1) The activity is determined by the Heart Infusion Agar Dilution Method (pH 7.2).
Background: Agar dilution tests growth on a series of plates holding different concentrations.

The next experiment deals with Serratia marcescens T-55. The experiment is described as above. The format is cell-based. The method, then:
as §1

In experiment [2] the test system is Klebsiella pneumoniae Y-60. Described as above. The class given is cell-based. The method, then: as §1
In experiment [3] the test system is Staphylococcus aureus Smith. The description is as above. The class given is cell-based. The following applies: pH 7.2. As to the method: as §1
The test system of a further experiment is Proteus morganii KY4298. Described as above. The class given is cell-based. The following applies: Morganella morganii. As to the method: as §1
The next experiment deals with Proteus mirabilis 1287. The experiment is described as above. The format is cell-based. The following applies: pH 7.2. As to the method: as §1
For another experiment, the system named is Pseudomonas putida F264. The description is as above. The format is cell-based. The method, then:
as §1

In another experiment the test system is Escherichia coli Juhl. The description is as above. The class given is cell-based. As to the method:
as §1

The next experiment has as its system Escherichia coli NIHJC-2. The description is as above. The format is cell-based. As to the method:
as §1

Experiment [4] relates to Staphylococcus epidermidis. Described as above. The class given is cell-based. The following applies: pH 7.2. As to the method: as §1
Experiment [5] deals with Staphylococcus aureus 209-p. The description is as above. The format is cell-based. The method, then:
as §1

The subject of the next experiment is Proteus rettgeri KY4289. The description is as above. The format is cell-based. The following applies: Providencia rettgeri. As to the method: as §1
In another experiment the test system is Proteus vulgaris 6897. The description is as above. The following applies: pH 7.2. The class given is cell-based. As to the method: as §1
The subject of experiment [6] is Gram-positive and Gram-negative bacteria. As to the kind of experiment: antibacterial activity (general statements). The class given is cell-based. The following applies: general or comparative statement.
Experiment [7] shares this test system. The following applies: J. Am. Chem. Soc., 96, 7584 (1974); J. Med. Chem., 20, 551 (1977); cited from earlier work.
[8] abbreviates: T55, Serratia marcescens T-55, Heart Infusion Agar Dilution Method, pH 7.2, read-out: Minimum Inhibitory Concentration.
The mark [9] stands for this setting: Y60, Klebsiella pneumoniae Y-60, Heart Infusion Agar Dilution Method, pH 7.2, read-out: Minimum Inhibitory Concentration.
[10] abbreviates: Proteus morganii KY4298, Heart Infusion Agar Dilution Method, pH 7.2, read-out: Minimum Inhibitory Concentration.
[11] abbreviates: Pseudomonas putida F264, Heart Infusion Agar Dilution Method, pH 7.2, read-out: Minimum Inhibitory Concentration.
The mark [12] stands for this setting: Escherichia coli Juhl, Heart Infusion Agar Dilution Method, pH 7.2, read-out: Minimum Inhibitory Concentration.
The mark [13] stands for this setting: NIHJC2, Escherichia coli NIHJC-2, Heart Infusion Agar Dilution Method, pH 7.2, read-out: Minimum Inhibitory Concentration.
[14] abbreviates: Staphylococcus aureus 209-p, Heart Infusion Agar Dilution Method, pH 7.2, read-out: Minimum Inhibitory Concentration.
Where [15] appears, read: Proteus rettgeri KY4289, Heart Infusion Agar Dilution Method, pH 7.2, read-out: Minimum Inhibitory Concentration.

In the case of `N[C@@H](C(=O)N[C@@H]1C(=O)N2C(C(=O)O)=C(Cl)CC[C@H]12)c1ccc(O)cc1` [e, (6R, 7S) 7-(R)-p-hydroxyphenyl-glycinamido-3-chloro-1-azabicyclo[4,2,0]oct-2-en-8-on-2-carboxylic acid], the MIC in experiment [1] was 0.78 µg/mL (≈ 2.13 µM); with Serratia marcescens T-55 (setting [8]), 6.25 µg/mL (≈ 17.1 µM); in [2] (setting [9]) it was 12.5 µg/mL (≈ 34.2 µM); in [3] it was 1.56 µg/mL (≈ 4.26 µM); in the experiment on Proteus morganii KY4298 (setting [10]), greater than 100 µg/mL; in the experiment on Proteus mirabilis 1287, 3.12 µg/mL (≈ 8.53 µM). Moreover, the MIC with Pseudomonas putida F264 (setting [11]) was 100 µg/mL (≈ 273 µM); with Escherichia coli Juhl (setting [12]) it was 1.56 µg/mL (≈ 4.26 µM); in the experiment with Escherichia coli NIHJC-2 (setting [13]), 1.56 µg/mL (≈ 4.26 µM); in experiment [4], 1.56 µg/mL (≈ 4.26 µM); in experiment [5] (setting [14]), 0.4 µg/mL (≈ 1.09 µM); in the experiment with Proteus rettgeri KY4289 (setting [15]), 100 µg/mL (≈ 273 µM). The molecule further gave an MIC in the experiment with Proteus vulgaris 6897 of 100 µg/mL (≈ 273 µM).
Consider `CCN1CCN(C(=O)N[C@@H](C(=O)N[C@@H]2C(=O)N3C(C(=O)O)=C(Cl)CC[C@H]23)c2ccccc2)C(=O)C1=O` [b, (6R, 7S) 7-[(R)-2-phenyl-2-(4-ethyl-2,3-dioxopiperadinylcarbonylamino)-acetamido]-3-chloro-1-azabicyclo[4,2,0]oct-2-en-8-on-2-carboxylic acid], for which the MIC in experiment [1] is 0.1 µg/mL (≈ 0.193 µM); in the experiment with Serratia marcescens T-55 (setting [8]), 3.12 µg/mL (≈ 6.02 µM); in [2] (setting [9]) it was 12.5 µg/mL (≈ 24.1 µM); in [3], 1.56 µg/mL (≈ 3.01 µM); in the experiment on Proteus morganii KY4298 (setting [10]), 3.12 µg/mL (≈ 6.02 µM); in the experiment on Proteus mirabilis 1287, 1.56 µg/mL (≈ 3.01 µM). Further, the MIC in the experiment on Pseudomonas putida F264 (setting [11]) was 25 µg/mL (≈ 48.3 µM); with Escherichia coli Juhl (setting [12]), 3.12 µg/mL (≈ 6.02 µM); in the experiment on Escherichia coli NIHJC-2 (setting [13]) it was 3.12 µg/mL (≈ 6.02 µM); in experiment [4], 1.56 µg/mL (≈ 3.01 µM); in experiment [5] (setting [14]), 0.4 µg/mL (≈ 0.772 µM); with Proteus rettgeri KY4289 (setting [15]), 3.12 µg/mL (≈ 6.02 µM). The molecule also showed an MIC against Proteus vulgaris 6897 of no more than 0.05 µg/mL.
`N[C@@H](C(=O)N[C@@H]1C(=O)N2C(C(=O)O)=C(Cl)CC[C@H]12)c1ccccc1` [a, (6R, 7S) 7-(R)-phenylglycinamido-3-chloro-1-azabicyclo[4,2,0]oct-2-en-8-on-2-carboxylic acid]: the “antibacterial (antimicrobial) activity, in words” value in experiment [6] is “greater antimicrobial activity”. In addition, the MIC in the experiment with Proteus morganii KY4298 (setting [10]) is greater than 100 µg/mL; in the experiment with Pseudomonas putida F264 (setting [11]), 100 µg/mL (≈ 286 µM); with Proteus rettgeri KY4289 (setting [15]), 100 µg/mL (≈ 286 µM); with Proteus vulgaris 6897, 100 µg/mL (≈ 286 µM).
In the case of `CC(=O)OCC1=C(C(=O)O)N2C(=O)C(NC(=O)Cc3cccs3)C2CC1` (racemic) [(i)-1-carbacephalotin], the “antibacterial activity, in words (literature)” value in experiment [7] is “having antibacterial activity”.
Regarding `CO/N=C(\C(=O)N[C@@H]1C(=O)N2C(C(=O)O)=C(Cl)CC[C@H]12)c1ccco1` (relative stereo) [c, cis-7-[2-(2-furyl)-2-syn-methoxyiminoacetamido]-3-chloro-1-azabicyclo[4,2,0]oct-2-en-8-on-2-carboxylic acid], the MIC in experiment [1] was 12.5 µg/mL (≈ 34 µM); in the experiment on Serratia marcescens T-55 (setting [8]) it was greater than 100 µg/mL; in [2] (setting [9]), 50 µg/mL (≈ 136 µM); in experiment [3] it was 12.5 µg/mL (≈ 34 µM); in the experiment with Proteus morganii KY4298 (setting [10]), greater than 100 µg/mL; in the experiment with Proteus mirabilis 1287, 12.5 µg/mL (≈ 34 µM). Also, the MIC in the experiment on Pseudomonas putida F264 (setting [11]) was greater than 100 µg/mL; in the experiment with Escherichia coli Juhl (setting [12]), 50 µg/mL (≈ 136 µM); in the experiment on Escherichia coli NIHJC-2 (setting [13]), 50 µg/mL (≈ 136 µM); in [4] it was 25 µg/mL (≈ 68 µM); in [5] (setting [14]), 6.25 µg/mL (≈ 17 µM); in the experiment on Proteus rettgeri KY4289 (setting [15]) it was 25 µg/mL (≈ 68 µM). Also, the MIC against Proteus vulgaris 6897 was 25 µg/mL (≈ 68 µM).
Take `CC1=C(C(=O)O)N2C(=O)[C@@H](NC(=O)[C@H](N)c3ccccc3)[C@H]2SC1` [f, Cephalexin, reference compound]: the MIC was 50 µg/mL (≈ 144 µM) with Serratia marcescens T-55 (Serratia marcescens, T55, pH 7.2, read-out: Minimum Inhibitory Concentration); 50 µg/mL (≈ 144 µM) in experiment [2] (Klebsiella pneumoniae, Y60, pH 7.2, read-out: Minimum Inhibitory Concentration); greater than 100 µg/mL with Proteus morganii KY4298 (KY4298, pH 7.2, read-out: Minimum Inhibitory Concentration); greater than 100 µg/mL with Pseudomonas putida F264 (Pseudomonas putida, F264, pH 7.2, read-out: Minimum Inhibitory Concentration); 12.5 µg/mL (≈ 36 µM) in the experiment with Escherichia coli Juhl (Escherichia coli, pH 7.2, read-out: Minimum Inhibitory Concentration); 12.5 µg/mL (≈ 36 µM) in the experiment with Escherichia coli NIHJC-2 (Escherichia coli, NIHJC2, pH 7.2, read-out: Minimum Inhibitory Concentration). Further, the MIC in experiment [5] (Staphylococcus aureus, 209P, pH 7.2, read-out: Minimum Inhibitory Concentration) was 0.2 µg/mL (≈ 0.576 µM); with Proteus rettgeri KY4289 (KY4289, pH 7.2, read-out: Minimum Inhibitory Concentration), greater than 100 µg/mL.
In the case of `CO/N=C(\C(=O)N[C@@H]1C(=O)N2C(C(=O)O)=C(Cl)CC[C@H]12)c1csc(N)n1` (relative stereo) [d, (±)-cis-7-[2-(2-aminothiazole-4-yl)-2-syn-methoxyiminoacetamido]-3-chloro-1-azabicyclo[4,2,0]oct-2en-8-on-2-carboxylic acid], the MIC was no more than 0.05 µg/mL in experiment [1]; 1.56 µg/mL (≈ 3.9 µM) with Serratia marcescens T-55 (setting [8]); 0.78 µg/mL (≈ 1.95 µM) in experiment [2] (setting [9]); 50 µg/mL (≈ 125 µM) in experiment [3]; 0.4 µg/mL (≈ 1 µM) in the experiment with Proteus morganii KY4298 (setting [10]); 0.1 µg/mL (≈ 0.25 µM) against Proteus mirabilis 1287. Further, the MIC in the experiment with Pseudomonas putida F264 (setting [11]) worked out at 3.12 µg/mL (≈ 7.8 µM); in the experiment on Escherichia coli Juhl (setting [12]), 0.4 µg/mL (≈ 1 µM); in the experiment on Escherichia coli NIHJC-2 (setting [13]), 0.78 µg/mL (≈ 1.95 µM); in [4], 50 µg/mL (≈ 125 µM); in [5] (setting [14]), 50 µg/mL (≈ 125 µM); in the experiment with Proteus rettgeri KY4289 (setting [15]), 0.1 µg/mL (≈ 0.25 µM). For the same molecule, in the experiment on Proteus vulgaris 6897, the MIC turned out to be 0.4 µg/mL (≈ 1 µM).
